According to EP4700027A1, “CRYSTALLINE FORM OF NITROGEN-CONTAINING TETRACYCLIC COMPOUND AND PREPARATION METHOD THEREFOR” (Jiangsu Hengrui Pharmaceuticals Co., Ltd., priority 2023, dated 2024):

Assay: Influencing factor stability study on crystal forms (light, high temperature, high humidity, 30 days)
Assay type: physicochemical
[1] = Light exposure (4500 Lux), 7 days
[2] = Light exposure (4500 Lux), 14 days
[3] = Light exposure (4500 Lux), 30 days
[4] = Light exposure (4500 Lux), 5 days
[5] = Light exposure (4500 Lux), 10 days

Structure (SMILES): C=CC(=O)N1CCN2C(=O)c3cc(F)c(-c4ccc(F)c5sc(N)c(C#N)c45)c4c(Cl)nn(c34)CC[C@H]2C1 [crystal form H]
- Color and state (40 °C, 7 days): Off-white solid
- Crystal form (40 °C, 7 days): Did not change
- Purity (%) (40 °C, 7 days): 98.2%
- Color and state (40 °C, 14 days): Off-white solid
- Crystal form (40 °C, 14 days): Did not change
- Purity (%) (40 °C, 14 days): 98.1%
- Color and state (40 °C, 30 days): Off-white solid
- Crystal form (40 °C, 30 days): Did not change
- Purity (%) (40 °C, 30 days): 97.7%
- Color and state (60 °C, 7 days): Off-white solid
- Crystal form (60 °C, 7 days): Did not change
- Purity (%) (60 °C, 7 days): 98.3%
- Color and state (60 °C, 14 days): Off-white solid
- Crystal form (60 °C, 14 days): Did not change
- Purity (%) (60 °C, 14 days): 98.2%
- Color and state (60 °C, 30 days): Off-white solid
- Crystal form (60 °C, 30 days): Did not change
- Purity (%) (60 °C, 30 days): 97.7%
- Color and state (75% RH, 7 days): Off-white solid
- Crystal form (75% RH, 7 days): Did not change
- Purity (%) (75% RH, 7 days): 98.4%
- Color and state (75% RH, 14 days): Off-white solid
- Crystal form (75% RH, 14 days): Did not change
- Purity (%) (75% RH, 14 days): 98.3%
- Color and state (75% RH, 30 days): Off-white solid
- Crystal form (75% RH, 30 days): Did not change
- Purity (%) (75% RH, 30 days): 98.4%
- Color and state (92.5% RH, 7 days): Off-white solid
- Crystal form (92.5% RH, 7 days): Did not change
- Purity (%) (92.5% RH, 7 days): 98.3%
- Color and state (92.5% RH, 14 days): Off-white solid
- Crystal form (92.5% RH, 14 days): Did not change
- Purity (%) (92.5% RH, 14 days): 98.3%
- Color and state (92.5% RH, 30 days): Off-white solid
- Crystal form (92.5% RH, 30 days): Did not change
- Purity (%) (92.5% RH, 30 days): 98.3%
- Color and state (Initial, 0 days): Off-white solid
- Crystal form (Initial, 0 days): Crystal form H
- Purity (%) (Initial, 0 days): 98.3%
- Color and state [1]: Off-white solid
- Crystal form [1]: Did not change
- Purity (%) [1]: 97.8%
- Color and state [2]: Off-white solid
- Crystal form [2]: Did not change
- Purity (%) [2]: 96.8%
- Color and state [3]: Off-white solid
- Crystal form [3]: Did not change
- Purity (%) [3]: 94.0%

Structure (SMILES): C=CC(=O)N1CCN2C(=O)c3cc(F)c(-c4ccc(F)c5sc(N)c(C#N)c45)c4c(Cl)nn(c34)CC[C@H]2C1 [crystal form L]
- Color and state (40 °C, 7 days): Off-white solid
- Crystal form (40 °C, 7 days): Did not change
- Purity (%) (40 °C, 7 days): 99.1%
- Color and state (40 °C, 14 days): Off-white solid
- Crystal form (40 °C, 14 days): Did not change
- Purity (%) (40 °C, 14 days): 99.0%
- Color and state (40 °C, 30 days): Off-white solid
- Crystal form (40 °C, 30 days): Did not change
- Purity (%) (40 °C, 30 days): 98.9%
- Color and state (60 °C, 7 days): Off-white solid
- Crystal form (60 °C, 7 days): Did not change
- Purity (%) (60 °C, 7 days): 99.1%
- Color and state (60 °C, 14 days): Off-white solid
- Crystal form (60 °C, 14 days): Did not change
- Purity (%) (60 °C, 14 days): 99.0%
- Color and state (60 °C, 30 days): Off-white solid
- Crystal form (60 °C, 30 days): Did not change
- Purity (%) (60 °C, 30 days): 98.9%
- Color and state (75% RH, 7 days): Off-white solid
- Crystal form (75% RH, 7 days): Did not change
- Purity (%) (75% RH, 7 days): 99.1%
- Color and state (75% RH, 14 days): Off-white solid
- Crystal form (75% RH, 14 days): Did not change
- Purity (%) (75% RH, 14 days): 99.1%
- Color and state (75% RH, 30 days): Off-white solid
- Crystal form (75% RH, 30 days): Did not change
- Purity (%) (75% RH, 30 days): 99.1%
- Color and state (92.5% RH, 7 days): Off-white solid
- Crystal form (92.5% RH, 7 days): Did not change
- Purity (%) (92.5% RH, 7 days): 99.1%
- Color and state (92.5% RH, 14 days): Off-white solid
- Crystal form (92.5% RH, 14 days): Did not change
- Purity (%) (92.5% RH, 14 days): 99.1%
- Color and state (92.5% RH, 30 days): Off-white solid
- Crystal form (92.5% RH, 30 days): Did not change
- Purity (%) (92.5% RH, 30 days): 99.1%
- Color and state (Initial, 0 days): Off-white solid
- Crystal form (Initial, 0 days): Crystal form L
- Purity (%) (Initial, 0 days): 99.1%
- Color and state [1]: Off-white solid
- Crystal form [1]: Did not change
- Purity (%) [1]: 98.6%
- Color and state [2]: Off-white solid
- Crystal form [2]: Did not change
- Purity (%) [2]: 98.2%
- Color and state [3]: Off-white solid
- Crystal form [3]: Did not change
- Purity (%) [3]: 98.3%

Structure (SMILES): C=CC(=O)N1CCN2C(=O)c3cc(F)c(-c4ccc(F)c5sc(N)c(C#N)c45)c4c(Cl)nn(c34)CC[C@H]2C1 [crystal form C]
- Color and state (40 °C, 5 days): Off-white solid
- Crystal form (40 °C, 5 days): Did not change
- Purity (%) (40 °C, 5 days): 98.0%
- Color and state (40 °C, 10 days): Off-white solid
- Crystal form (40 °C, 10 days): Did not change
- Purity (%) (40 °C, 10 days): 97.6%
- Color and state (40 °C, 30 days): Off-white solid
- Crystal form (40 °C, 30 days): Did not change
- Purity (%) (40 °C, 30 days): 97.2%
- Color and state (60 °C, 5 days): Off-white solid
- Crystal form (60 °C, 5 days): Did not change
- Purity (%) (60 °C, 5 days): 98.0%
- Color and state (60 °C, 10 days): Off-white solid
- Crystal form (60 °C, 10 days): Did not change
- Purity (%) (60 °C, 10 days): 97.9%
- Color and state (60 °C, 30 days): Off-white solid
- Crystal form (60 °C, 30 days): Did not change
- Purity (%) (60 °C, 30 days): 97.5%
- Color and state (75% RH, 5 days): Off-white solid
- Crystal form (75% RH, 5 days): Did not change
- Purity (%) (75% RH, 5 days): 98.1%
- Color and state (75% RH, 10 days): Off-white solid
- Crystal form (75% RH, 10 days): Did not change
- Purity (%) (75% RH, 10 days): 98.1%
- Color and state (75% RH, 30 days): Off-white solid
- Crystal form (75% RH, 30 days): Did not change
- Purity (%) (75% RH, 30 days): 98.1%
- Color and state (92.5% RH, 5 days): Off-white solid
- Crystal form (92.5% RH, 5 days): Did not change
- Purity (%) (92.5% RH, 5 days): 98.1%
- Color and state (92.5% RH, 10 days): Off-white solid
- Crystal form (92.5% RH, 10 days): Did not change
- Purity (%) (92.5% RH, 10 days): 98.1%
- Color and state (92.5% RH, 30 days): Off-white solid
- Crystal form (92.5% RH, 30 days): Did not change
- Purity (%) (92.5% RH, 30 days): 98.1%
- Color and state (Initial, 0 days): Off-white solid
- Crystal form (Initial, 0 days): Crystal form C
- Purity (%) (Initial, 0 days): 98.2%
- Color and state [4]: Off-white solid
- Crystal form [4]: Did not change
- Purity (%) [4]: 98.0%
- Color and state [5]: Off-white solid
- Crystal form [5]: Did not change
- Purity (%) [5]: 97.9%
- Color and state [3]: Off-white solid
- Crystal form [3]: Did not change
- Purity (%) [3]: 97.5%
